Experimental data published in patent US8372406B2, “Antitumoral and antiviral peptides” (priority 2004, dated 2013).

How the values were obtained:
[1] = test system: R388D1 cells (lymphoid neoplasm of a mouse); test: Clonogenic activity of tumor cells, interaction with cyclophosphamide; format: cell-based; details: clones counted after 7 days; for influence upon the cloning process (clonogenic activity): taken separately
leucocytes of a human = test: Interferon in vitro synthesis by human leucocytes (interferonogenic activity); format: cell-based; details: 0.01-10 microgram/ml, 24 hours, 6 donated blood samples
tumor cells = test: In vitro effect of alloferon on tumor cell proliferation; format: cell-based; details: depending on concentration in cultural media
[2] = test system: mice tumor syngeneic graft; test: Growth of mice tumor syngeneic graft (alloferon research); details: mouse, in vivo
R388D1-type tumor cells = test: In vitro influence on tumor cells proliferation (mass culture, cell counts); format: cell-based, mouse
Description: Object of instant experiments is the comparative analysis of influence of allostatin and alloferon on tumor cells proliferation. Effects of allostatin-1 and alloferon-1 in concentrations 0.001, 0.01, 0.1, 1, and 10 microgram per ml on proliferative activity in a mass culture of R388D1-type tumor cells were compared. 5000 cells suspended in 2 ml of […] medium were seed into wells of 24-socket plates. Medium used for the experiments comprises 5% fetal calf serum produced by firm “Biolot”. Preparations were introduced into wells in 0.2 ml of the sane medium immediately after inoculation, and, in control, equivalent amount of the medium was introduced without medications. Number of cells in 1 ml of incubating medium was estimated by means of hemocytometric camera. Average number of cells in 1 ml of incubating medium after 21, 44, 99 and 144 hours after beginning of the experiment was estimated on the base of 3 independent measurements.
FIG. 3 presents a typical view of allostatin and alloferon influence on growth dynamics of tumor cell population. As an evaluation indicator of anti-proliferative activity of the medication, the value of a growth multiplicity of the population for 90 hours was selected, which value is determined as a ratio of a number of cells in a well in the beginning and at the end of the incubation time. […]

[3] = test system: tumor cells of the syngeneic line R388D1; test: Antitumoral action on transplanted tumors in mice; format: in vivo, mouse (line DBA-1)
Description: Each of laboratory mouse (line DBA-1) was subcutaneously injected by 3000 tumor cells of the syngeneic line R388D1. Next day mice were separated into 4 experimental groups. Mice of the first group have got only allostatin in a subcutaneous way in a dosage on 25 microgram at 4, 11 and 18 day after tumor cell transplantation. Second group has got a combination of cytostatic agents, cyclophosphamide (0.56 mg), doxorubicine (0.036 mg) and vincrystine (1.05 microgram) on the day of transplantation and after 7, 14 and 21 days. Third group has got allostatin and combination of cytostatic agents in the same way. Mice of the fourth group (control group) were injected by the solvent (0.9% NaCl) in the same days.

Compound: O=P1(N(CCCl)CCCl)NCCCO1 (stereo not drawn) [cyclophosphamide, reference compound]
- influence upon the cloning process (clonogenic activity) [1]: Neither cyclophosphamide, nor allostatin taken separately, had a significant influence

Compound: alloferon: Known immunomodulating peptide, SEQ ID NO 12; closest analogue, histidine and valine in positions 6 and 11 (HGVSGHGQHGVHG; Alloferon-1; listed as Calliphora vicina)
- interferonogenic activity (allostatin vs alloferon) (leucocytes of a human): have no significant difference
- proliferation of tumor cells (tumor cells): may both inhibit (at high concentrations) and stimulate (at low concentrations)
- growth of mice tumor syngeneic graft [2]: depresses the growth

Compound: allostatin: Linear 13-amino-acid peptide, SEQ ID NO 1; differs from alloferon-1 by tryptophan at position 6 and threonine at position 11 (HGVSGWGQHGTHG; Synthetic construct designed on the basis of the peptides SEQ ID NO 2-12 comparison)
- interferonogenic activity (allostatin vs alloferon) (leucocytes of a human): have no significant difference
- growth of the tumor cell population (R388D1-type tumor cells; 10 microgram/ml, over the observation period): almost completely stopped the growth
- anti-proliferative activity relative to alloferon (growth multiplicity of the population) (R388D1-type tumor cells; concentrations of 0.001-1 mkg/ml, growth multiplicity for 90 hours): 3-7 times
- mice with formed tumors during observation period ([3]; allostatin 25 microgram s.c. (days 4, 11, 18) combined with cytostatics (cyclophosphamide, doxorubicine, vincrystine)): 40%
- tumor formation ([3]; allostatin or cytostatics given separately, DBA-1 mice, 3000 R388D1 cells subcutaneously): tumors were formed after some delays, and moderate part of animals has not exhibited tumor formation
- antitumoral action ([3]; combination of allostatin and cytostatics): strong and in the most cases irreversible antitumoral action
- clonogenic activity of tumor cells ([1]; allostatin in combination with cyclophosphamide): significantly decreased a clonogenic activity of tumor cells, proportionally to allostatin dose
- influence upon the cloning process (clonogenic activity) [1]: Neither cyclophosphamide, nor allostatin taken separately, had a significant influence
